According to patent US11207312B2, “Metallo-beta-lactamase inhibitors and methods of use thereof” (priority 2017, dated 2021):

What was measured:
[1] = target: NDM-1 (Klebsiella pneumoniae, UniProt C7C422); assay: biochemical; type: biochemical; conditions: CCF2-FA fluorescence assay, 2 hours at 25° C.
Outline: (§1)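 In 100 mM phosphate pH 7 containing Tween-20 and ZnSO4, NDM-1 (1 pM), IMP-1 (2 pM) or VIM-1 (30 pM) hydrolysed 1.25 μM CCF2-FA over 2 hours at 25° C with inhibitor present. Readout was 405/460 nm fluorescence.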

[2] = target: IMP-1 (Serratia marcescens, UniProt P52699); assay: biochemical; conditions: CCF2-FA fluorescence assay, 2 hours at 25° C.; read-out: IMP1 IC50
Outline: as §1

[3] = target: VIM-1 (Pseudomonas aeruginosa (strain ATCC 15692 / DSM 22644 / CIP 104116 / JCM 14847 / LMG 12228 / 1C / PRS 101 / PAO1), UniProt A0A0F7KYQ8); assay: biochemical; conditions: CCF2-FA fluorescence assay, 2 hours at 25° C.; read-out: VIM1 IC50
Outline: as §1

[4] = target: VIM-2 (Escherichia coli, UniProt Q5U7L7); assay: biochemical; conditions: CCF2-FA fluorescence assay; read-out: VIM2 IC50
[5] = system: Escherichia coli expressing NDM-1 (CLB30016); type: cell-based; conditions: with imipenem 1 μg/ml; 95% inhibition of bacterial growth
Outline: (§2)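 Imipenem 1 μg/ml + inhibitor titration in cation-adjusted MHB (1.1× stock medium); overnight-cultured colonies suspended in saline, diluted 1:100. 35 °C, 22–24 h; absorbance read. MITC95 = lowest compound conc giving 95% growth inhibition.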

[6] = system: Klebsiella pneumoniae expressing VIM-1 (IHMA599644); type: cell-based; conditions: with imipenem 1 μg/ml; 95% inhibition of bacterial growth
Outline: as §2

[7] = system: Serratia marcescens expressing IMP-1 (CL5741); type: cell-based; conditions: with imipenem 1 μg/ml; 95% inhibition of bacterial growth
Outline: as §2

[8] = system: P. aeruginosa MB9798 (efflux+, IMP-1 plasmid); conditions: for MB9798 MITC95 P. aeruginosa uM Efflux WT: efflux + (MB9798) strain, imipenem at 2 μg/mL, in the presence of a class A, C, D serine β-lactamase inhibitor closely related to relebactam; for Efflux ratio: fold difference between efflux+ (MB9798) and efflux− (MB9799) strains
Outline: (§3)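 PAO1-derived isogenic pair (oprD+, inducible AmpC), efflux+ MB5919 or efflux− MB5890 parent, carrying an electroporated IMP-1 plasmid from a clinical isolate. Microbroth MIC with fixed imipenem and/or ceftazidime (usually CLSI breakpoint) plus fixed class A/C inhibitor; MBL inhibitor serially titrated, concentration restoring susceptibility recorded.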

[9] = system: P. aeruginosa MB9799 (efflux-, IMP-1 plasmid); type: cell-based, Pseudomonas aeruginosa; conditions: efflux − (MB9799) strain; imipenem at 2 μg/mL; in the presence of a class A, C, D serine β-lactamase inhibitor closely related to relebactam
Outline: as §3

Chain of NDM-1 (C7C422 whole entry, looked up, species assumed): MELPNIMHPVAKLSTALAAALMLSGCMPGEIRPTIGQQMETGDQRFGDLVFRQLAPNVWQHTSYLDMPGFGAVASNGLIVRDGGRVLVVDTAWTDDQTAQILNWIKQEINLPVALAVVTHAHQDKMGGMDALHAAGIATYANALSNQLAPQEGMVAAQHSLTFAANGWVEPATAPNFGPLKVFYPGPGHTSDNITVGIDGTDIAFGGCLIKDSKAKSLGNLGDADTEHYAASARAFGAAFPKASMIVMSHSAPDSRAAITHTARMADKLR
Chain of IMP-1 (P52699 whole entry, looked up, species assumed): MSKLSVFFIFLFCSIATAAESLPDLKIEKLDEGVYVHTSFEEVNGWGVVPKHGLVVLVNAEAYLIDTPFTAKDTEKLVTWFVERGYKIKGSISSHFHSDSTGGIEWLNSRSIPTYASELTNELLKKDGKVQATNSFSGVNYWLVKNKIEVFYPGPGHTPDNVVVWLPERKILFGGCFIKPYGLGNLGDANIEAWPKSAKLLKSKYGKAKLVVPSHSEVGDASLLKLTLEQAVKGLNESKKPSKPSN

SMILES | IC50 [1] | IC50 [2] | IC50 [3] | IC50 [4] | CLB30016 E. coli MITC95 NDM [5] | IHMA599644 K. pneumoniae MITC95 VIM [6] | CL5741 S. marcescens MITC95 IMP [7] | MB9798 MITC95 P. aeruginosa uM Efflux WT [8] | Efflux ratio [8] | MB9799 MITC95 P. aeruginosa uM Efflux Mutant [9]
NCC1CCN(c2ccc(S(=O)(=O)N[C@@H]3CCNC3)c(S(N)(=O)=O)c2-c2nnn[nH]2)CC1 [Example 77, 4-[4-(aminomethyl)piperidin-1-yl]-N1-[(3R)-pyrrolidin-3-yl]-3-(1H-tetrazol-5-yl)benzene-1,2-disulfonamide] | 0.53 nM | 1.83 nM | 0.11 nM | 1.8 nM | 0.78 µM | 0.78 µM | 0.78 µM | 0.78 µM | 2.00 | 0.39 µM
NS(=O)(=O)c1c(S(=O)(=O)C2CNC2)ccc(N2CCC[C@H](O)C2)c1-c1nnn[nH]1 [Example 60, 6-(azetidin-3-ylsulfonyl)-3-[(3S)-3-hydroxypiperidin-1-yl]-2-(1H-tetrazol-5-yl)benzenesulfonamide] | 4.23 nM | 6.05 nM | 1.44 nM | 2.67 nM | 3.13 µM | 6.25 µM | 3.13 µM | 12.50 µM | 4.00 | 3.13 µM
NCCN1CCN(c2ccc(S(=O)(=O)NC[C@H](O)CN)c(S(N)(=O)=O)c2-c2nn[nH]n2)CC1=O [Example 147, (R)-N1-(3-amino-2-hydroxypropyl)-4-(4-(2-aminoethyl)-3-oxopiperazin-1-yl)-3-(2H-tetrazol-5-yl)benzene-1,2-disulfonamide] | 27 nM | 39.6 nM | 0.28 nM | 56.2 nM | 0.39 µM | 1.56 µM | 0.78 µM | 3.13 µM | 4.00 | 0.78 µM
NC[C@@H](O)CNS(=O)(=O)c1ccc(N2CCC[C@@H](NCCO)C2)c(-c2nn[nH]n2)c1S(N)(=O)=O [Example 130, N1-((R)-3-amino-2-hydroxypropyl)-4-((R)-3-((2-hydroxyethyl)amino)piperidin-1-yl)-3-(2H-tetrazol-5-yl)benzene-1,2-disulfonamide bis(2,2,2-trifluoroacetate)] | 32 nM | 128 nM | 4.21 nM | 5.47 nM | 0.78 µM | 1.56 µM | 3.13 µM | 12.50 µM | 4.00 | 3.13 µM
NC[C@@H](O)CNS(=O)(=O)c1ccc(N2CCC(C(N)=O)C2)c(-c2nn[nH]n2)c1S(N)(=O)=O (stereo partly drawn) [Example 118, 1-(4-(N—((R)-3-amino-2-hydroxypropyl)sulfamoyl)-3-sulfamoyl-2-(2H-tetrazol-5-yl)phenyl)pyrrolidine-3-carboxamide] | 1.55 nM | 1.25 nM | 1.2 nM | 2.44 nM | 1.56 µM | 3.13 µM | 1.56 µM | 1.56 µM | 1.00 | 1.56 µM
CN1CCOC2(C1)CN(c1ccc(S(=O)(=O)N[C@@H]3CCNC3)c(S(N)(=O)=O)c1-c1nnn[nH]1)C2 [Example 115, 4-(8-methyl-5-oxa-2,8-diazaspiro[3.5]non-2-yl)-N1-[(3R)-pyrrolidin-3-yl]-3-(1H-tetrazol-5-yl)benzene-1,2-disulfonamide] | 6.14 nM | 6.06 nM | 2.1 nM | 19.2 nM | 0.39 µM | 3.13 µM | 0.78 µM | 12.50 µM | 16.00 | 0.78 µM
CN(C)CC1(O)CCN(c2ccc(S(=O)(=O)N[C@@H]3CCNC3)c(S(N)(=O)=O)c2-c2nnn[nH]2)CC1 [Example 100, 4-{4-[(dimethylamino)methyl]-4-hydroxypiperidin-1-yl}-N1-[(3R)-pyrrolidin-3-yl]-3-(1H-tetrazol-5-yl)benzene-1,2-disulfonamide] | 17.5 nM | 37 nM | 12.4 nM | 162 nM | 12.50 µM | 12.50 µM | 6.25 µM | 12.50 µM | 2.00 | 6.25 µM
NS(=O)(=O)c1c(S(=O)(=O)N[C@@H]2CCNC2)ccc(N2CCC(O)CC2=O)c1-c1nn[nH]n1 (stereo partly drawn) [Example 159, 4-(4-hydroxy-2-oxopiperidin-1-yl)-N1-((R)-pyrrolidin-3-yl)-3-(2H-tetrazol-5-yl)benzene-1,2-disulfonamide] | 0.61 nM | 15.9 nM | 0.38 nM | 2.62 nM | 1.56 µM | 6.25 µM | 0.78 µM | 6.25 µM | 4.00 | 1.56 µM
CC1(O)CCCN(c2ccc(S(=O)(=O)C3CNC3)c(S(N)(=O)=O)c2-c2nnn[nH]2)C1 (centres unmarked) [Example 59, 6-(azetidin-3-ylsulfonyl)-3-(3-hydroxy-3-methylpiperidin-1-yl)-2-(1H-tetrazol-5-yl)benzenesulfonamide] | 3.22 nM | 8.38 nM | 1.84 nM | 2.18 nM | 6.25 µM | 6.25 µM | 6.25 µM | 50.00 µM | 16.00 | 3.13 µM
NC[C@@H](O)CNS(=O)(=O)c1ccc(N2CC[C@H](CN)[C@@H](O)C2)c(-c2nn[nH]n2)c1S(N)(=O)=O [Example 10] | 16.4 nM | 28.9 nM | 0.43 nM | 27 nM | 0.39 µM | 1.56 µM | 0.39 µM | 3.13 µM | 4.00 | 0.78 µM
NC[C@@H](O)CNS(=O)(=O)c1ccc(N2CCC3CNCC3C2)c(-c2nnn[nH]2)c1S(N)(=O)=O (stereo partly drawn) [Example 141, N1-((R)-3-amino-2-hydroxypropyl)-4-(hexahydro-1H-pyrrolo[3,4-c]pyridin-5(6H)-yl)-3-(1H-tetrazol-5-yl)benzene-1,2-disulfonamide] | 15.8 nM | 11.9 nM | 0.43 nM | 15.7 nM | 1.56 µM | 1.56 µM | 1.56 µM | 6.25 µM | 4.00 | 1.56 µM
